From BigSolDB 2.1

c1ccc(-c2ccc(C(c3ccccc3)n3ccnc3)cc2)cc1 (stereo not given)
solubility (mole fraction)
Settings	278.15 K	283.15 K	288.15 K	293.15 K	298.15 K	303.15 K	308.15 K	313.15 K	318.15 K
in isopropanol	0.00118	0.00165	0.00222	0.00309	0.0041	0.00554	0.00722	0.00951	0.0123
in methanol	0.00228	0.00304	0.00395	0.00517	0.0066	0.00844	0.0106	0.0135	0.0166
in n-propanol	0.00142	0.00196	0.00266	0.00355	0.00468	0.00612	0.00799	0.0106	0.0134
in propylene glycol	0.0017	0.00233	0.00316	0.00418	0.00547	0.00707	0.00916	0.0117	0.0149
in water	6.6e-06	9.22e-06	1.27e-05	1.7e-05	2.05e-05	2.88e-05	3.87e-05	4.82e-05	6.11e-05
